100 molecules from ChEMBL document CHEMBL3507680, “University of Dundee, Gates Library screen for HepG2 cell viability” can be followed below.

This data set is described as follows: Human HepG2 cell viability assay in 384 well format. The conditions noted are these: HepG2 cells, read-out: Inhibition. Details: dose 125 nL, time 70.5 hour; cytotoxicity at 70.5 h: concentration not given beside the values. It is filed as toxicity, cell-based.
For the molecule `CCC(C)NC(=O)c1snnc1-c1ccc(OC)cc1` (stereo not given), the cytotoxicity at 70.5 h came out at 0.408%.

Take `CNc1cc(CNC(=O)c2ccnc(OC)c2)nc(-c2ccncc2)n1`: the cytotoxicity at 70.5 h was found to be 11.8%. As to `CCn1ccnc1CN(C)C(=O)Cn1ccc2ccccc2c1=O`, the cytotoxicity at 70.5 h was -10.4%. For `COc1ccc(C[C@H]2CN(C(=O)c3ccc(C)nc3)CC[C@@H]2OC)cc1`, the cytotoxicity at 70.5 h is -2.92%. Take `CN(C)c1nccc(C2CN(S(C)(=O)=O)C2)n1`: the cytotoxicity at 70.5 h is -1.11%. Regarding `N#Cc1ccc(C(=O)NCC2(N3CCOCC3)CCCC2)nc1`, the cytotoxicity at 70.5 h is -4.06%. Consider `Cc1cnn(CCNCC(=O)N2CCN(c3ncccn3)CC2)c1`, for which the cytotoxicity at 70.5 h is -4.23%.

As to `O=C(NCc1ccccc1CN1CCCCC1)Nc1nncs1`, the cytotoxicity at 70.5 h was -10.2%.

As to `Cc1noc(C)c1-c1cccc(CC2CCN(C(=O)c3cscn3)C2)n1` (stereo not given), the cytotoxicity at 70.5 h was -5.81%. As for `COc1ccc(F)cc1-n1cnc(CCNC(C)=O)c1`, the cytotoxicity at 70.5 h stood at 16.3%. Regarding `Cc1ccnc(NC(=O)C2CCN(CCCn3ccnc3)CC2)c1`, the cytotoxicity at 70.5 h is -15.3%. Under `c1ccc(OCCNC2CCN(c3ncccn3)CC2)cc1` stands 2.01%; under `CCn1nc2c(cc1=O)CN(Cc1ccc(-n3cccn3)cc1)CC2`, 2.14%.

As to `COC(=O)CCC(=O)Nc1ccc(Br)c(C)n1`, the cytotoxicity at 70.5 h is -0.954%. Then `CN(C)C(=O)NC1COC2(CCN(S(=O)(=O)c3ccccc3)CC2)C1` (stereo not given), with -10.3%; and `COc1ccc(-c2ccc(C3CNCCO3)nc2)cc1` (stereo not given), with -5.61%. Turning to `CCN(CC1CCOC1)C(=O)c1ccccc1S(=O)(=O)CC` (stereo not given), the cytotoxicity at 70.5 h was 10.2%. With `Cn1cc(CN2CC[C@@H]3[C@H]2CCC(=O)N3c2ccccc2)cn1`, the cytotoxicity at 70.5 h is -8.65%. Take `CCOC[C@H]1CC[C@H]2[C@H](CCN2C(=O)c2cnccn2)O1`: the cytotoxicity at 70.5 h was -4.15%. Turning to `c1csc(N2CCN(c3nccn4cnnc34)CC2)n1`, the cytotoxicity at 70.5 h was -3.57%. Then `COCCN1CCC2(CCN(c3ncccn3)CC2)C1=O`, with 16.9%; and `Cc1ccc(CN2CCCn3c(nc(Cn4cncn4)cc3=O)C2)s1`, with -19.3%; and `CC(NC(=O)NCCCN(C)S(C)(=O)=O)c1cccnc1` (stereo not given), with -7.17%. For the molecule `COc1cc(-c2cccc3c2OC(CN)C3)ccc1O` (stereo not given), the cytotoxicity at 70.5 h is 14.1%. As to `O=C(NCCNc1ncccn1)N1CCN(C2CCCC2)CC1`, the cytotoxicity at 70.5 h was -8.5%. As to `Cc1ccc(NC2CCN(C(=O)c3ccc(F)c(C)c3)CC2)nn1`, the cytotoxicity at 70.5 h stood at 14.1%. Regarding `CCNC(=O)NC[C@H]1COCc2nc3cc(OC)ccc3n21`, the cytotoxicity at 70.5 h is -10.9%. As to `CCN(CC)[C@H]1COC[C@@H]2CN(Cc3cnn(C)c3)C[C@@H]21`, the cytotoxicity at 70.5 h was -3.13%. Consider `COc1ccc(C(=O)N2CCN(C(=O)CCCc3cn[nH]c3)CC2)cc1`, for which the cytotoxicity at 70.5 h was -5.64%. For `CCN(CCCNC(=O)c1cc2cccc(F)c2o1)S(C)(=O)=O`, the cytotoxicity at 70.5 h is -8.74%. Then `CC(C)Oc1ccc(C(=O)N2CCCSCC2CN(C)C)cc1` (stereo not given), with 26.1%; and `CCN(Cc1cnn(C)c1)C(=O)c1cc2ccccc2c(=O)[nH]1`, with -7.09%. As to `Cc1cc(NC(=O)NC2CCCc3c2cnn3CCO)n(C)n1` (stereo not given), the cytotoxicity at 70.5 h was -1.75%. Turning to `COc1c(Br)c(CC2CC(CO)=NO2)c(Br)c2c1OCO2` (stereo not given), the cytotoxicity at 70.5 h was -7.56%.

On to `COc1cccc([C@H]2CN(C(C)=O)[C@@H]3CCN(Cc4ccsc4)C[C@H]23)c1`, for which the cytotoxicity at 70.5 h is -4.18%.

As to `O=C(O)[C@]12CCCN(Cc3cccs3)C[C@H]1CN(c1ncccn1)C2`, the cytotoxicity at 70.5 h is -9.42%.

In the case of `Cc1ccc(C(=O)Nc2cnn(CC(=O)NC3CCCC3)c2)c(=O)[nH]1`, the cytotoxicity at 70.5 h was -3.7%.

Consider `Cc1cncc(NC(=O)c2ccc(CN3CCC(CO)CC3)cc2)c1`, for which the cytotoxicity at 70.5 h is -16.3%. For the molecule `COc1ccc(-c2ccc(C(=O)N3CCOCC3CC(N)=O)o2)cc1` (stereo not given), the cytotoxicity at 70.5 h is -2.54%. With `CN(C)CCNC(=O)c1ccc(OC2CCN(C3CCC3)CC2)c(Cl)c1`, the cytotoxicity at 70.5 h was -5.59%. In the case of `CN(CCS(=O)(=O)c1cc(Cl)ccc1Cl)CC(=O)Nc1cccc(F)c1`, the cytotoxicity at 70.5 h was -0.61%. With `COc1cc(-c2n[nH]c(CO)n2)cc(OC)c1OC`, the cytotoxicity at 70.5 h is 29.6%. Under `Clc1cccc(C(CNCc2cccnc2)N2CCOCC2)c1` (stereo not given) stands 29.7%. Consider `CCn1cnnc1Cn1cccc(C(F)(F)F)c1=O`, for which the cytotoxicity at 70.5 h stood at 4.98%. Regarding `CN(CCC(=O)N1CCCC(Cc2cccnc2)C1)Cc1cccnc1` (stereo not given), the cytotoxicity at 70.5 h is -6.27%. For `CCCc1cc(CNC(=O)C2CCOc3ccccc3C2)on1` (stereo not given), the cytotoxicity at 70.5 h is 2.98%. Consider `Fc1ccccc1-c1noc2c1CN(CC1CC1)CC2`, for which the cytotoxicity at 70.5 h is -3.89%. Turning to `COc1ccc(CCN(C)C(C(=O)O)c2ccc(F)c(C)c2)cc1OC` (stereo not given), the cytotoxicity at 70.5 h stood at 9.05%. Under `CC(C)(C)SCC(=O)NC(C)(C(N)=O)c1cccc(Cl)c1` (stereo not given) stands -6.38%. Under `CNc1nc(CNC(=O)Nc2cccc(-n3ccc(C)n3)c2)cs1` stands 0.812%; under `COc1cccc(-c2ccnc(C3CCNCC3)c2)c1`, 7.37%; under `CC(Nc1ccc(N2C(=O)CCCC2=O)cc1)c1ccc(C#N)cc1` (stereo not given), -6.87%. Turning to `CCc1cc(CN2CCCCC2c2ccc(F)cc2)on1` (stereo not given), the cytotoxicity at 70.5 h was -5.55%. In the case of `CCN(CC)C(=O)C1CCCN(CC(=O)Nc2c(C)nn(CC)c2C)C1` (stereo not given), the cytotoxicity at 70.5 h was 22.3%. Then `O=C1NC2(Cc3ccccc31)CN(CC1CCNC1)C2` (stereo not given), with -11.5%; and `Cc1ccc(-c2cc(-c3nc(CN4CCN(C)CC4)no3)n[nH]2)cc1`, with 22.4%; and `CCN(C(=O)CSc1ccc(C(F)(F)F)cn1)C1CC1`, with 7.64%. `Cc1ncncc1C(=O)N1CCC(O)(CN(C)Cc2ccc(F)cc2)C1` (stereo not given): the cytotoxicity at 70.5 h was -5.31%. Consider `COc1ccccc1CCNC(=O)NC(C)COCC(F)(F)F` (stereo not given), for which the cytotoxicity at 70.5 h was -5.34%.

Turning to `COc1cccc(-c2ncc3c(n2)N(C)CCN(CCN(C)C)C3=O)c1`, the cytotoxicity at 70.5 h was -6.84%. Consider `Cc1nc(O)cc(CCNC(=O)CN2CCCCCC2)n1`, for which the cytotoxicity at 70.5 h stood at 1.28%. Under `O=C(CCc1cscn1)NS(=O)(=O)c1ccc2ccccc2c1` stands -5.17%. Then `Nc1nccnc1C1CN(Cc2ccc(OCC(=O)O)cc2)CCO1` (stereo not given), with 0.531%. As for `OC(COCc1ccccc1F)CN1CCC(Cn2cccn2)CC1` (stereo not given), the cytotoxicity at 70.5 h is -0.0861%. As to `CSc1ncc(CNCC2(N3CCCCC3)Cc3ccccc3C2)cn1`, the cytotoxicity at 70.5 h is -1.26%. As to `CN1CCC(c2nc3ccc(-c4cccc(F)c4)cn3n2)CC1`, the cytotoxicity at 70.5 h was -6.5%. For `COc1c(C2CCCN2C(=O)c2scnc2C)c(C)nn1C` (stereo not given), the cytotoxicity at 70.5 h was -10.9%. For the molecule `COc1ccccc1CCNC(=O)CNCC1CN(C)CCO1` (stereo not given), the cytotoxicity at 70.5 h is -3.47%. Under `CC(C)Cn1cc(NCc2cscn2)cn1` stands 9.5%; under `N#Cc1ccc(OC[C@]23COC[C@H]2CN(c2ncccn2)C3)nc1`, -7.98%. `CCC(=O)N1CCN(c2ncnc3cc4c(cc23)OCCO4)CC1`: the cytotoxicity at 70.5 h was -4.42%. For `O=C1CCCCN1c1cccc(CNC2CCCC2)c1`, the cytotoxicity at 70.5 h was -17.9%.

`Cc1cc2ccccc2n1CCC(=O)NCc1ncc[nH]1`: the cytotoxicity at 70.5 h is -1.07%. With `Cc1cccc(CS(=O)(=O)NCC(O)Cc2ccccc2)c1` (stereo not given), the cytotoxicity at 70.5 h turned out to be 0.192%. As to `CCCN1CCC(N2CCC(Cn3cc(C4CC4)nn3)CC2)CC1`, the cytotoxicity at 70.5 h was -8.35%.

For the molecule `Cc1ccc(OCC(O)CN(C)CC(=O)Nc2cc(C)on2)c(C)c1` (stereo not given), the cytotoxicity at 70.5 h turned out to be 10.1%. Under `CC(C)c1noc(CNc2ccccc2CC(=O)N(C)C)n1` stands -2.98%.

Take `COCC(=O)N1CCN(C(=O)c2cccs2)[C@@H](C(=O)OC)C1`: the cytotoxicity at 70.5 h is -5%. With `CC(C)CSCCCNC(=O)C1CCOCC1`, the cytotoxicity at 70.5 h was -5.98%. Take `CC(=O)N1CCOC(CNC(=O)c2cccc(CCC(C)(C)O)c2)C1` (stereo not given): the cytotoxicity at 70.5 h amounted to 8.87%.

For `CC(C)c1nccn1Cc1cc(C(=O)NCC(C)n2ccnc2)n[nH]1` (stereo not given), the cytotoxicity at 70.5 h is -6.98%. For the molecule `COc1c(NC(=O)C(C)CCOc2ccccc2)c(C)nn1C` (stereo not given), the cytotoxicity at 70.5 h amounted to 7.42%. For the molecule `CCn1cc(S(=O)(=O)N2CCCSc3ccccc32)cn1`, the cytotoxicity at 70.5 h is -7.44%. As to `O=C(c1ccoc1)N1CCOC2(COCCN(CC3CC3)C2)C1` (stereo not given), the cytotoxicity at 70.5 h was -1.92%. Then `COCCNC(=O)C1CC(=O)N(c2n[nH]c3cccc(F)c23)C1` (stereo not given), with -25%; and `CNC(=O)C1CN(Cc2c[nH]cn2)CCN(C2CCOCC2)C1` (stereo not given), with 14.9%; and `Cc1cc(C)cc(CN2CCN(Cc3cccc(CCN)c3)CC2=O)c1`, with -10.8%.

On to `CN(CC(=O)N1CCCC1c1cnn(C)c1)c1ccc(Cl)cn1` (stereo not given), for which the cytotoxicity at 70.5 h was 3.73%. Then `CNC(=O)CN1CCO[C@H]2CN(CC3CC3)C[C@H]21`, with -2.3%; and `CCC(=O)Nc1nnc(CCCOc2ccccc2)s1`, with -13.1%.

Regarding `CS(=O)(=O)N1CC(=O)N(CCCc2ccccc2)CC(O)C1` (stereo not given), the cytotoxicity at 70.5 h was -8.69%. Then `O=C(NCc1ccnc(-n2cccn2)c1)C1CC(=O)N(CC2CC2)C1` (stereo not given), with -8.83%; and `O=C1N(CC2CC2)CCC12CCCN(c1ncc(F)cn1)C2` (stereo not given), with -3.11%; and `O=C(c1cccn2ccnc12)N1CCCN(c2cccnn2)CC1`, with -20.2%. Under `CC(=O)N1CCC(Nc2ccc(Br)cc2C#N)C1` (stereo not given) stands 4.92%; under `Cc1cnn(CC2CCCN2C(=O)CCc2nc3ccccc3[nH]2)c1` (stereo not given), -15.5%; under `Cc1nn(Cc2ccc(C(=O)NCCCN3CCOCC3)o2)c(C)c1Cl`, 24.8%.

Regarding `CN(CC1CCOC1)c1ncc(Br)cn1` (stereo not given), the cytotoxicity at 70.5 h is -3.89%.

For `N#CCCCOc1cccc(CN2CCCC2c2ccc[nH]2)c1` (stereo not given), the cytotoxicity at 70.5 h was determined as 1.38%. Under `Cc1cnn(CC2CCCN2C(=O)CCc2ccco2)c1` (stereo not given) stands -6.55%.
